Assay results taken from PubChem BioAssay (NCI).
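Values below derive from 48-hour exposures of cells grown in 96-well plates, with endpoints linearly interpolated between the two concentrations bracketing the appropriate inhibition level. GI50: concentration for 50% inhibition of growth. The concentration for full growth arrest is given as TGI.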

Tests used:
Experiment in all cases: NCI tumour cell line growth inhibition, 48 h
[1] = tested on: HOP-92 NSCLC
[2] = tested on: MDA-MB-231 breast
[3] = tested on: SK-MEL-28 melanoma
[4] = tested on: TK-10 renal
[5] = tested on: HOP-62 NSCLC
[6] = tested on: HT29 colon
[7] = tested on: KM12 colon
[8] = tested on: COLO 205 colon
[9] = tested on: U251 CNS
[10] = tested on: SF-295 CNS

| SMILES | GI50 [1] | TGI [1] | GI50 [2] | TGI [2] | GI50 [3] | TGI [3] | GI50 [4] | TGI [4] | GI50 [5] | TGI [5] | GI50 [6] | TGI [6] | GI50 [7] | TGI [7] | GI50 [8] | TGI [8] | GI50 [9] | TGI [9] | GI50 [10] | TGI [10] |
| --- | --- | --- | --- | --- | --- | --- | --- | --- | --- | --- | --- | --- | --- | --- | --- | --- | --- | --- | --- | --- |
| COc1cnc2c(c1)C(=O)c1c-2n(CCCN2CCNCC2)c(=O)c2cc(F)ccc12 | 0.139 µM | 2.95 µM | 0.479 µM | 1.94 µM | 1.52 µM | 3.03 µM | 0.267 µM | 1.43 µM | 0.0665 µM | 0.352 µM | 0.15 µM | 0.68 µM | 0.168 µM | 1.16 µM | 0.15 µM | 1.44 µM | 0.0841 µM | 1.05 µM | – | – |
| CC1(C)N=C(N)N=C(N)N1c1cccc(CC(=O)Nc2ccccc2)c1 | – | – | > 100 µM | > 100 µM | 9.15 µM | 77 µM | > 100 µM | > 100 µM | 53.4 µM | > 100 µM | 2.35 µM | > 100 µM | 15.1 µM | > 100 µM | 47.3 µM | > 100 µM | 4.96 µM | > 100 µM | 30.6 µM | > 100 µM |
| COC(=O)N1C=Cc2c(c(C)c3c([nH]c4ccccc43)c2C)C1C (configuration not stated) | – | 36.5 µM | – | – | – | 31.1 µM | – | 35.9 µM | – | 34.5 µM | – | 26.5 µM | – | – | – | 34.4 µM | – | 30.4 µM | – | 28.6 µM |
| Cc1c(Cl)ccc2[s+]snc12 | – | – | – | – | – | > 100 µM | – | > 100 µM | – | > 100 µM | – | > 100 µM | – | > 100 µM | – | > 100 µM | – | 70.2 µM | – | > 100 µM |
| C/C(=N\NC(N)=S)c1ccc(Oc2ccccc2)cc1 | – | 9.48 µM | – | – | – | 33.2 µM | – | 21.8 µM | – | 46.6 µM | – | – | – | – | – | 25.7 µM | – | 31.3 µM | – | 38.4 µM |
| O=C1C(=C2C(=O)c3ccccc3[N+]2=O)N([O-])c2ccccc21 | – | – | – | – | – | > 100 µM | – | 81.1 µM | – | – | – | 94.1 µM | – | – | – | 33 µM | – | 53.9 µM | – | > 100 µM |
| Cc1ccccc1C1N=C2Oc3ccccc3C=C2C(=O)N1 (configuration not stated) | – | – | 1.81 µM | 33.3 µM | 4.57 µM | > 100 µM | 8.06 µM | > 100 µM | 3.39 µM | > 100 µM | 4.48 µM | > 100 µM | 15 µM | > 100 µM | 1.46 µM | 15 µM | 11.7 µM | > 100 µM | 1.46 µM | > 25.9 µM |
| O=c1ccn([C@@H]2C[C@H](CO)CS(=O)C2)c(=O)[nH]1 (some centres not stated) | – | > 100 µM | – | – | – | > 100 µM | – | > 100 µM | – | > 100 µM | – | > 100 µM | – | > 100 µM | – | > 100 µM | – | > 100 µM | – | > 100 µM |
| CCn1c(O)c(C(=O)Nc2cccs2)c(=O)n(CC)c1=S | – | 47.8 µM | – | – | – | 32.2 µM | – | 69.3 µM | – | 47.6 µM | – | 31.9 µM | – | 32.6 µM | – | 32.2 µM | – | 25.9 µM | – | 35.6 µM |
| CCCCCCCCCCCCCCCCCCCCCCC(=O)N[C@H]1CCc2cc(OC)c(OC)c(OC)c2-c2ccc(SC)c(=O)cc21 | – | > 100 µM | – | – | – | > 100 µM | – | > 100 µM | – | > 100 µM | – | 99 µM | – | > 100 µM | – | 31.9 µM | – | 53.2 µM | – | > 100 µM |
| O=C(/C=C/c1c[nH]c2ccccc12)c1ccccc1O | – | 17.1 µM | – | 18.4 µM | – | 47.6 µM | – | 32.8 µM | – | 28.1 µM | – | 33.9 µM | – | 70.1 µM | – | – | – | 40.4 µM | – | 22.3 µM |
| COc1ccc2c(c1)c(-c1nc(-c3cn(C)c4ncccc34)cs1)cn2CCCCN1CCCCC1 | 1.38 µM | 2.76 µM | – | – | 1.74 µM | 3.16 µM | 1.53 µM | 2.95 µM | – | – | 1.59 µM | 3.03 µM | 1.7 µM | 3.15 µM | – | – | – | – | – | – |
| C[C@H](O)CCC(=O)c1ccoc1 | – | > 100 µM | – | – | – | > 100 µM | – | > 100 µM | – | > 100 µM | – | > 100 µM | – | > 100 µM | – | > 100 µM | – | > 100 µM | – | > 100 µM |
| O=C(CC1(O)C(=O)Nc2ccc(Br)cc21)c1cccc([N+](=O)[O-])c1 (configuration not stated) | – | 74.6 µM | – | – | – | > 100 µM | – | > 100 µM | – | > 100 µM | – | > 100 µM | – | > 100 µM | – | > 100 µM | – | > 100 µM | – | > 100 µM |
| COc1cc(C(=O)N[C@@H]2CCCN(C)C2)ccc1Nc1ncc2c(n1)N(C1CCCC1)CC(C)(C)C(=O)N2C | – | – | 1.56 µM | 15.6 µM | 0.153 µM | 2.04 µM | 4.3 µM | 20.9 µM | 0.0641 µM | 10.2 µM | 0.0363 µM | 6.46 µM | 0.0343 µM | 18.3 µM | 0.0412 µM | 1.18 µM | 0.0465 µM | 5.48 µM | 0.109 µM | 3.56 µM |
| CCc1ccc2cc3c(ccc4ccccc43)c3c2c1CC3 | > 100 µM | > 100 µM | > 100 µM | > 100 µM | > 100 µM | > 100 µM | > 100 µM | > 100 µM | > 100 µM | > 100 µM | > 100 µM | > 100 µM | > 100 µM | > 100 µM | > 100 µM | > 100 µM | – | – | – | – |
| O=C(c1ccccc1)N1CCc2c([nH]c3ccccc23)C1 | – | > 100 µM | – | – | – | > 100 µM | – | > 100 µM | – | > 100 µM | – | > 100 µM | – | > 100 µM | – | 36.7 µM | – | > 100 µM | – | > 100 µM |
| CCc1cccc(CC)c1NC1=CC(=O)C(=O)c2ccccc21 | – | 29.6 µM | – | – | – | 37.4 µM | – | 56.3 µM | – | 40.3 µM | – | 3.95 µM | – | 33.2 µM | – | > 100 µM | – | 36.6 µM | – | 28.3 µM |
| CN(C)c1ccc(-c2cc(-c3cccc(NS(C)(=O)=O)c3)nc(N)c2C#N)cc1 | – | – | 0.11 µM | 1.52 µM | 0.0508 µM | 35.1 µM | 0.0735 µM | > 55.2 µM | 0.045 µM | 29.6 µM | 0.0319 µM | 0.457 µM | 0.0381 µM | 1.75 µM | 0.025 µM | 0.0729 µM | 0.0418 µM | 20.4 µM | 0.0274 µM | 3.95 µM |
